Results: article PMC4899283 (Structure (London, England : 1993), 2016)

Columns and labels:
[1] = target: T1, full-length bcMalT (EIIB and EIIC domains) (Bacillus cereus, UniProt Q63GK8); experiment: scintillation proximity assay, competition with [3H]maltose; type: binding; settings: 1 μM [3H]maltose, 4 mM LDAO, pH 7.5, 150 mM NaCl, 4 °C; homologous competition
T1 sequence (Q63GK8 1-545): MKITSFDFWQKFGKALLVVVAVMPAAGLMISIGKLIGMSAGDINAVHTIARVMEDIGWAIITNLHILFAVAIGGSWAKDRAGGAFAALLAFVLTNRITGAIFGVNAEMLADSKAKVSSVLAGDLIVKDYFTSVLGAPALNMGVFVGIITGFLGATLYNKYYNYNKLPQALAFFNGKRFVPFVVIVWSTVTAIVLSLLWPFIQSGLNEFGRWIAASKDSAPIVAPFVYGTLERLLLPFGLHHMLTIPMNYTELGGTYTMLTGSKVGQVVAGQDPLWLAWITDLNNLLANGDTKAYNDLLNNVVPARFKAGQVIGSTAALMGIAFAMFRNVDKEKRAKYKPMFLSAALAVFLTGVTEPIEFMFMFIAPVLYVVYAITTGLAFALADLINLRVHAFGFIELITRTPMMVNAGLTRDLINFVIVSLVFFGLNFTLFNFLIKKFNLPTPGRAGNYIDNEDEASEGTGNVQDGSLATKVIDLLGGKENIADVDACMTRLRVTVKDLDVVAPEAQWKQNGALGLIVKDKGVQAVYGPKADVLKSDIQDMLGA

[2] = target: T1, full-length bcMalT (EIIB and EIIC domains); experiment: as above; type: binding; settings: 1 μM [3H]maltose, 4 mM LDAO, pH 7.5, 150 mM NaCl, 4 °C

| Compound | IC50 [1] | binding competition at 500 μM [2] |
| --- | --- | --- |
| OC[C@H]1O[C@H](O[C@H]2[C@H](O)[C@@H](O)C(O)O[C@@H]2CO)[C@H](O)[C@@H](O)[C@@H]1O (some centres unmarked) [maltose] | 4.5 ± 1.1 µM |  |
| OC[C@H]1O[C@@](CO)(O[C@H]2O[C@H](CO)[C@@H](O)[C@H](O)[C@H]2O)[C@@H](O)[C@@H]1O [sucrose] |  | No significant binding was observed for a number of other sugars tested, with the exception of sucrose |
